According to paper PMC4749642, “Evaluation of anticonvulsant and antinociceptive properties of new N-Mannich bases derived from pyrrolidine-2,5-dione and 3-methylpyrrolidine-2,5-dione” (Naunyn-Schmiedeberg's Archives of Pharmacology, 2015):
Where “and” joins values, the source holds several entries; their conditions need not be identical. Equal values may be shown once. Marks after values point to notes of the source that are not given here.

Columns and labels:
[1] = tested on: mice; test: Electroconvulsive threshold test (MEST test); type: in vivo, mouse
[2] = tested on: mice; test: Pilocarpine-induced seizure test; type: in vivo, mouse
Description: (§1) Male CD-1 mice weighing 18–24 g were used in the in vivo experiment. The animals were kept at room temperature of 20 ± 2 °C under standard conditions (12:12 h light-dark cycle, standard pellet diet, tap water). All the experiments were performed between 8 a.m. and 3 p.m. For the experiments, the animals were selected in a random way and sacrificed by cervical dislocation immediately after the assay. The experimental protocol was approved by the Local Ethics Commission for Animal Experiments of the Jagiellonian University in Cracow, and all experiences were conducted in accordance with the 1996 NIH Guide for the Care and Use of Laboratory Animals.
(§2) The tested compounds 12 (N-[{4-(3,4-dichlorophenyl)-piperazin-1-yl}-methyl]-3-methylpyrrolidine-2,5-dione), 13 (N-[{4-(3-trifluoromethylphenyl)-piperazin-1-yl}-methyl]-3-methylpyrrolidine-2,5-dione), 15 (N-[{4-(3-methylphenyl)-piperazin-1-yl}-methyl]-3-methylpyrrolidine-2,5-dione), 23 (N-[{4-(3,4-dichlorophenyl)-piperazin-1-yl}-methyl]-pyrrolidine-2,5-dione), and 24 (N-[{4-(3-trifluoromethylphenyl)-piperazin-1-yl}-methyl]-pyrrolidine-2,5-dione) were synthesized at the Department of Medicinal Chemistry, Jagiellonian University Medical College in Cracow (Scheme 1). The synthesis of the investigated compounds was described earlier (Rybka et al. [2014]). The investigated compounds were suspended in a 0.5 % aqueous solution of methylcellulose (Loba Chemie, Germany). Lacosamide (Vimpat, UCB Pharma, Belgium), pilocarpine (Sigma-Aldrich, Germany), scopolamine butylbromide (Sigma-Aldrich, Germany), and formaldehyde (POCh, Poland) were dissolved in distilled water. Agents were administered intraperitoneally (i.p.) at a volume of 0.1 ml/10 g. Control animals were administered an equivalent volume of vehicle (0.5 % aqueous solution of methylcellulose) via the same route as the test compounds.
The experimental procedure was originally described by Turski et al. ([1987]). Seizures were induced in mice by i.p. injection of pilocarpine at a dose of 400 mg/kg. Forty-five minutes before pilocarpine, animals were also pretreated with scopolamine butylbromide (1 mg/kg, i.p.) to reduce peripheral autonomic side effects and masticatory and stereotyped movements (Kowalczyk et al. [2014]). Direct observation was performed for 60 min to monitor the latency time to the onset of the limbic seizures, characterized by a subsequent development of behavioral symptoms, such as tremor, head bobbing, and myoclonic movements of the forelimbs progressing to recurrent myoclonic convulsions with rearing, salivation, falling, and status epilepticus (Łuszczki et al. [2008]; Turski [2000]).

[3] = tested on: mice; test: Hot plate test; type: in vivo, mouse; conditions: dose 30 mg/kg i.p.; for latency time to pain reaction: mean ± SEM, vehicle 27.51 ± 1.36 s, cutoff 60 s
Description: as §1, §2
In the hot plate test, the mice were i.p. pretreated either with the test compound or vehicle before placing the animal on the hot plate apparatus (Panlab/Harvard Apparatus, Spain). This apparatus has an electrically heated surface and is supplied with a temperature controller that maintains the temperature at 55–56 °C. The time to the first reaction (licking or jumping) of mice to a nociceptive stimulus was recorded. The cutoff time was established to 60 s to avoid paw tissue damage (Sałat et al. [2014]).

[4] = tested on: mice; test: Formalin hind paw test; type: in vivo, mouse; conditions: dose 30 mg/kg i.p.; for reduction of the duration of the licking response, first (neurogenic) phase: 0–5 min after 5 % formalin; for antinociceptive effect (reduction of licking response), second (late) phase: 15–30 min after 5 % formalin
Description: as §1, §2
Antinociceptive activity in the formalin hind paw test was examined according to Laughlin et al. ([2002]). Twenty microliters of a 5 % formalin solution was injected intraplantarly (i.pl.) into the right hind paw of the mouse. […] Time (in seconds) spent on licking or biting the injected hind paw in selected intervals, 0–5 and 15–30 min, was measured in each experimental group and was an indicator of nociceptive behavior. In mice, intraplantarly injection of diluted formalin produces a biphasic nocifensive behavioral response (i.e., licking or biting the injected hind paw). The acute nociceptive phase lasts for the first 5 min, whereas the second inflammatory phase occurs between 15 and 30 min after formalin injection.

[5] = tested on: mice; test: Spontaneous locomotor activity (photoresistor actometers); type: in vivo, mouse
Description: as §1, §2
Locomotor activity was measured with photoresistor actometers (Ugo Basile, Italy) connected to a counter for the recording of light-beam interruptions. Mice were individually placed in plastic cages for 30 min habituation period, and then the number of light-beam crossings was counted for a 30-min session. The cages were cleaned up with 70 % ethanol after each mouse.

[6] = tested on: V. harveyi BB7; test: Vibrio harveyi mutagenicity assay, BB7 strain; conditions: 40 ng/ml; for Mutagenicity BB7 M.I. (mutagenic index): positive assay when M.I. ≥ 2
Description: (§3) Two V. harveyi strains were used in the experiments: wild-type BB7 and genetically modified BB7XM (the UV-hypersensitive strain bearing plasmid pAB91273), which were described previously by Czyż et al. ([2000]).
(§4) Mutagenicity assay was performed as described previously (Czyż et al. [2000]). All experiments were carried out in triplicate and the results were expressed as mutagenic index (M.I. = the number of revertant colonies induced in the tested sample/the number of spontaneous revertants in the negative control) (Gulluce et al. [2010]).

[7] = tested on: V. harveyi BB7XM; test: Vibrio harveyi mutagenicity assay, BB7XM strain; conditions: 40 ng/ml; for Mutagenicity BB7XM M.I. (mutagenic index): positive assay when M.I. ≥ 2
Description: as §3, §4

[8] = tested on: V. harveyi BB7; test: Vibrio harveyi antimutagenicity assay (vs NQNO), BB7 strain; type: cell-based; conditions: for inhibition of NQNO-induced mutagenicity in BB7 strain (in words): NQNO 40 ng/ml; for Antimutagenicity BB7 number of revertants Mean ± SD: test compound plus NQNO 40 ng/ml (NQNO line: mutagen only); for Antimutagenicity BB7 Inhib. (%) of mutagenicity: test compound plus NQNO 40 ng/ml, 25–40 % moderate, 40 % or more strong
Description: as §3
(§5) Antimutagenicity assay was performed according to previously described procedures (Czyż et al. [2002]; Pękala et al. [2013]). […] This was calculated as follows: Inhibition (%) = 100 − [(R1/R2) × 100], where R1 is the number of revertants per plate induced by test compound plus mutagen and R2 is the number of revertants in the plate containing only the mutagen (Słoczyńska et al. [2010]). No antimutagenic effect was considered when the inhibition was less than 25 %; a moderate effect for an inhibition value between 25 and 40 % and a strong antimutagenicity were recorded for inhibition higher than 40 % (Gulluce et al. [2010]).

[9] = tested on: V. harveyi BB7XM; test: Vibrio harveyi antimutagenicity assay (vs NQNO), BB7XM strain; type: cell-based; conditions: for Antimutagenicity BB7XM number of revertants Mean ± SD: test compound plus NQNO 40 ng/ml (NQNO line: mutagen only); for Antimutagenicity BB7XM Inhib. (%) of mutagenicity: test compound plus NQNO 40 ng/ml, 25–40 % moderate, 40 % or more strong
Description: as §3, §5

[10] = tested on: L-type calcium channel (dihydropyridine site); test: L-type Ca channel (dihydropyridine site) [3H]nitrendipine binding assay; conditions: rat cerebral cortex
[11] = dose 30 mg/kg i.p., 4 h before the test, value with 95 % confidence interval
[12] = dose 100 mg/kg i.p., 4 h before pilocarpine 400 mg/kg
[13] = dose 30 mg/kg i.p., 30-min session
[14] = dose 100 mg/kg i.p., 4 h before pilocarpine

Compound	CS50 (mA) (CI) [1, 11]	Latency to status epilepticus (s) ± SEM [2, 12]	latency time to pain reaction [3]	reduction of the duration of the licking response, first (neurogenic) phase [4]	antinociceptive effect (reduction of licking response), second (late) phase [4]	influence on locomotor activity (number of crossings, in words) [5, 13]	Mutagenicity BB7 number of revertants Mean ± SD [6]	Mutagenicity BB7 M.I. (mutagenic index) [6]	Mutagenicity BB7XM number of revertants Mean ± SD [7]	Mutagenicity BB7XM M.I. (mutagenic index) [7]	inhibition of NQNO-induced mutagenicity in BB7 strain (in words) [8]	Antimutagenicity BB7 number of revertants Mean ± SD [8]	Antimutagenicity BB7 Inhib. (%) of mutagenicity [8]	Antimutagenicity BB7XM number of revertants Mean ± SD [9]	Antimutagenicity BB7XM Inhib. (%) of mutagenicity [9]	Anticonvulsant effect (%) (prolongation of latency time to seizures vs vehicle) [2, 14]	prolongation of latency time to pain reaction vs vehicle [3]	further results
CC1CC(=O)N(CN2CCN(c3cccc(C(F)(F)F)c3)CC2)C1=O (stereo not shown) [Compound 13, N-[{4-(3-trifluoromethylphenyl)-piperazin-1-yl}-methyl]-3-methylpyrrolidine-2,5-dione]	9.37 (5.47–16.07)* mA	296.7 ± 9.63 s	56.03 ± 1.75 s	79%	89%	significantly reduced the number of crossings	22 ± 3	1.4	20 ± 5	1.7	moderate inhibitors	25 ± 4	(35) %	20 ± 4	(16) %	–	–	–
O=C1CCC(=O)N1CN1CCN(c2cccc(C(F)(F)F)c2)CC1 [Compound 24, N-[{4-(3-trifluoromethylphenyl)-piperazin-1-yl}-methyl]-pyrrolidine-2,5-dione]	14.01 (9.05–21.70)*** mA	346.7 ± 25.92 s	47.23 ± 3.77 s	62%	94%	significantly reduced the number of crossings	25 ± 4	1.6	19 ± 1	1.6	weakly suppressed	31 ± 5	(18) %	29 ± 3	(0) %	1.2%	72%	increase of electroconvulsive threshold (ECT) vs vehicle ([1]; dose 10 mg/kg i.p., 4 h before the test): 68%; CS50 (mA) (CI) ([1]; dose 10 mg/kg i.p., 4 h before the test, value with 95 % confidence interval): 11.11 (8.12–15.20)*** mA; increase of electroconvulsive threshold (ECT) vs vehicle ([1]; dose 30 mg/kg i.p., 4 h before the test): 114%
COC[C@@H](NC(C)=O)C(=O)NCc1ccccc1 [Lacosamide, reference compound]	–	–	–	69%	90%	significant decrease of locomotor activity	–	–	–	–	–	–	–	–	–	–	–	CS50 (mA) (CI) ([1]; dose 10 mg/kg i.p., 30 min before the test, 10 mg/kg): >25 mA; CS50 (mA) (CI) ([1]; dose 10 mg/kg i.p., 30 min before the test, listed as lacosamide, 10 mg/kg): above 25 mA; Anticonvulsant effect (%) (prolongation of latency time to seizures vs vehicle) ([2]; dose 30 mg/kg i.p., 30 min before pilocarpine): 12.8%; Latency to status epilepticus (s) ± SEM ([2]; dose 30 mg/kg i.p., 30 min before pilocarpine 400 mg/kg): 382.1 ± 22.86 s; Latency to status epilepticus (s) ± SEM ([2]; dose 40 mg/kg i.p., 30 min before pilocarpine 400 mg/kg): 507.7 ± 52.11 s; Anticonvulsant effect (%) (prolongation of latency time to seizures vs vehicle) ([2]; dose 40 mg/kg i.p., 30 min before pilocarpine, 40 mg/kg): 50% and 49.8%; antinociceptive activity in the hot plate test (in words) [3]: significantly prolonged the latency time
O=C1NC(=O)C(c2ccccc2)(c2ccccc2)N1 [Phenytoin, reference compound]	–	–	–	–	–	–	–	–	–	–	–	–	–	–	–	–	–	% inhibition of control specific binding ([10]; 10 μM): 6.6%; % inhibition of control specific binding ([10]; 100 μM): 57.8%
N-[{4-(3-methylphenyl)-piperazin-1-yl}-methyl]-3-methylpyrrolidine-2,5-dione [Compound 15]	8.11 (7.12–9.24)*** mA	406.0 ± 59.77 s	47.12 ± 6.14 s	52%	66%	–	–	–	–	–	–	–	–	–	–	18.5%	71%	influence on locomotor activity (number of crossings, in words) ([5]; mouse, in vivo, ip, 30 mg/kg): significantly reduced the number of crossings
